PMC2758719 (Molecular Systems Biology, 2009)

Target: T1, PfkA (Escherichia coli, UniProt P0A796)
T1 sequence (P0A796 1-320): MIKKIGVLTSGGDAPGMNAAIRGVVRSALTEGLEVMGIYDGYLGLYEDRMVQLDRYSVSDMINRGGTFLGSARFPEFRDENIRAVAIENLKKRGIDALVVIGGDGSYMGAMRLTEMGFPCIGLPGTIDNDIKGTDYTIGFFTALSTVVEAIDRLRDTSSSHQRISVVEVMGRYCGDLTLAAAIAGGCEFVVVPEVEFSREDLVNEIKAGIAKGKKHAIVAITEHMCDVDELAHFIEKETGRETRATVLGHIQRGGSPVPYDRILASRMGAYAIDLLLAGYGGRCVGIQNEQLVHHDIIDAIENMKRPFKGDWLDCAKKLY
Experiment: CE-MS quantification of metabolites after incubation
Format: biochemical
Settings: 5 mM S7P, 2 mM ATP, 2 uM enzyme, 50 mM MOPS potassium buffer, 37 °C, 1 h

## O=P(O)(O)OC[C@@H](O)[C@H]1OC(O)(CO)[C@@H](O)[C@@H]1O (stereo partly shown) [S7P]
  CE-MS quantification of metabolites after incubation: When S7P and ATP were incubated with PfkA, S7P and ATP were consumed
